In patent publication EP0549365A1, “Thiazolidine compounds, their preparation and their therapeutic uses” (Sankyo Company Limited, priority 1991, dated 1993):

Tested on: diabetic male mice of the KK strain
Test: Hypoglycemic activity (blood glucose lowering in diabetic KK mice)
Assay type: in vivo
Details: Mus musculus, 50 mg/kg oral, blood from tail vein after 18 hours free feeding, relative to solvent group, read-out: BGL lowering rate (%)
Description: The test animals used were diabetic male mice of the KK strain, each having a body weight more than 40 g. Each animal was orally administered 50 mg/kg of a test compound and then allowed to feed freely for 18 hours. At the end of this time, blood was collected from the tail veins without anesthesia. The blood glucose level (BGL) was determined by means of a glucose analyzer (GL-101, manufactured by Mitsubishi Kasei Co.).
The blood glucose lowering rate was calculated by the following equation: Blood glucose lowering rate (%) = [(BGLs - BGLt )/BGLs ] x 100 [formula] where: BGLs is the BGL in the group administered a solvent; and BGLt is the BGL in the group administered a test compound.

SMILES | inhibition in vivo at 50 mg/kg [%]
COc1c(C)c(CCOc2ccc(CC3SC(=O)NC3=O)cc2)c(OC)c(OC)c1OC (centres unmarked) [Example 16] | 20.2
COc1c(C)c(CCCOc2ccc(CC3SC(=O)NC3=O)cc2)c(OC)c(OC)c1OC (centres unmarked) [Example 18] | 22
COc1cc(CCOc2ccc(CC3SC(=O)NC3=O)cc2)c(OC)c2ccccc12 (centres unmarked) [Example 34] | 40
COc1c(C)c(C)c(OC)c(CCCOc2ccc(CC3SC(=O)NC3=O)cc2)c1C (centres unmarked) [Example 10, 5-{4-[3-(2,4,5-trimethyl-3,6-dimethoxyphenyl)propoxy]benzyl}thiazolidine-2,4-dione] | 46
COc1c(C)c(CCCCOc2ccc(CC3SC(=O)NC3=O)cc2)c(OC)c(OC)c1OC (centres unmarked) [Example 19] | 26.6
CC1=C(C)C(=O)C(CCC(C)(O)COc2ccc(CC3SC(=O)NC3=O)cc2)=C(C)C1=O (centres unmarked) [Control 1, 5-{4-[2-Methyl-2-hydroxy-4-(3,5,6-trimethyl-1,4-benzoquinon-2-yl)butoxy]benzyl}thiazolidine-2,4-dione, reference compound] | -0.5
COc1c(C)c(C)c(OC)c(COc2ccc(CC3SC(=O)NC3=O)cc2)c1C (centres unmarked) [Example 9] | 28.8
COc1c(C)c(COc2ccc(CC3SC(=O)NC3=O)cc2)c(OC)c2ccccc12 (centres unmarked) [Example 33] | 28.4
CC(=O)Oc1c(C)c(C)c(OC(C)=O)c(CCOc2ccc(CC3SC(=O)NC3=O)cc2)c1C (centres unmarked) [Example 21] | 33.4
CC(=O)Oc1c(C)c(C)c(OC(C)=O)c(CCCOc2ccc(CC3SC(=O)NC3=O)cc2)c1C (centres unmarked) [Example 23] | 24.4
COc1c(C)c(C)c(OC)c(CCCCOc2ccc(CC3SC(=O)NC3=O)cc2)c1C (centres unmarked) [Example 12] | 24
CC(=O)Oc1c(C)c(C)c(OC(C)=O)c(Oc2ccc(CC3SC(=O)NC3=O)cc2)c1C (centres unmarked) [Example 7, 5-[4-(2,5-Diacetoxy-3,4,6-trimethylphenoxy)benzyl]thiazolidine-2,4-dione] | 24
COc1cc(COc2ccc(CC3SC(=O)NC3=O)cc2)c(OC)c2ccccc12 (centres unmarked) [Example 31] | 32.9
Cc1c(C)c(O)c(CCC(C)(O)COc2ccc(CC3SC(=O)NC3=O)cc2)c(C)c1O (centres unmarked) [Control 2, 5-{4-[4-(2,5-Dihydroxy-3,4,6-trimethylphenyl)-2-hydroxy-2-methylbutoxy]benzyl}thiazolidine-2,4-dione, reference compound] | 10.4
